From ChEMBL document CHEMBL1147251, “Crambescidin 826 and dehydrocrambine A: new polycyclic guanidine alkaloids from the marine sponge Monanchora sp. that inhibit HIV-1 fusion” (J Nat Prod, 2003)
pIC50: −log10 of the molar value. The source made the active and inactive calls. The calls are words filed in the database; no cut-off is given here.

Assays:
[1] = Inhibition of HIV1 LAV gp120 binding to CD4 assessed as inhibition of CD4 expressing african green monkey BSC1 cells fusion to CXCR4 expressing mouse NIH3T3 cells after 2.5 hrs by beta-galactosidase assay; assay type: cell-based, Human immunodeficiency virus 1
[2] = Inhibition of HIV1 SF162 gp120 binding to CD4 assessed as inhibition of CD4 expressing african green monkey BSC1 cells fusion to CCR5 expressing mouse NIH3T3 cells after 2.5 hrs by beta-galactosidase assay; assay type: cell-based, Human immunodeficiency virus 1
NIH3T3 [3] = assay: Inhibition of HIV1 LAV gp120 binding to CD4 assessed as inhibition of CD4 expressing african green monkey BSC1 cells fusion to CXCR4 expressing mouse NIH3T3 cells treated after 15 to 90 mins of fusion measured after 2.5 hrs by beta-galactosidase assay; assay type: cell-based; settings: Human immunodeficiency virus 1
NIH3T3 [4] = assay: Inhibition of HIV1 SF162 gp120 binding to CD4 assessed as inhibition of CD4 expressing african green monkey BSC1 cells fusion to CCR5 expressing mouse NIH3T3 cells treated after 15 to 90 mins of fusion measured after 2.5 hrs by beta-galactosidase assay; assay type: cell-based; settings: Human immunodeficiency virus 1

SMILES | pIC50 [1] | pIC50 [2] | Activity (NIH3T3 [3]) | Activity (NIH3T3 [4])
CCCCCCCCCCCc1nc(=N)n2c(c1C(=O)OCCCCNC(=N)N)CCC2 [DEHYDROCRAMBINE A] | 4.46 | 4.46 |  | 
CC[C@H]1C=CCC[C@@]2(C[C@@H]3CC[C@@H]4[C@H](C(=O)OCCCCCCCCCCCCCCCCCC(=O)N(CCCN)CCCC(N)=O)[C@]5(CCC[C@@H](C)O5)N=C(N2)N34)O1 [CRAMBESCIDIN 826] | 6.00 | 6.00 |  | 
CC[C@H]1CCCC[C@@]2(C[C@@H]3CC[C@@H]4[C@H](C(=O)OCCCCCCCCCCCCCCCC(=O)N(CCCN)C[C@@H](O)CCN)[C@]5(CCC[C@@H](C)O5)N=C(N2)N34)O1 [CRAMBESCIDIN 800] | 6.00 | 6.00 | inactive | inactive
CC[C@H]1C=CCC[C@@]2(C[C@@H]3CC[C@@H]4[C@H](C(=O)OCCCCCCCCCCCCCCCC5=NCCCN5CC(O)CCN)[C@]5(CCC[C@@H](C)O5)N=C(N2)N34)O1 (stereo not given in full) [FROMIAMYCALIN] | 6.00 | 6.00 |  | 
